Source: US20070254907A1, “COMPOSITIONS AND METHODS FOR CONTROLLING INFESTATION” (HATCHTECH PTY LTD, priority 2003, published 2007)
Like-named read-outs stand apart in the source and are kept apart here.

What was measured:
[1] = test system: Lice (L) and Plutella (P) eggs; test: whole plant or invertebrate; details: read-out: Ovicidal activity %
Plutella xylostella eggs = test: whole plant or invertebrate; format: in vivo; details: for inhibition at 10000 µM: Plutella xylostella; for Activity class 0 = inactive 1 = low 2 = med 3 = high: listed as of 10 mM
Experimental: The ovicidal efficacy of 2-acetyl-1-tetralone was also tested against Plutella eggs.

lice eggs = test: whole plant or invertebrate; format: in vivo; details: for Activity class 0 = inactive 1 = low 2 = med 3 = high: listed as of 10 mM; for inhibition at 10000 µM: Pediculus humanus, read-out: Ovicidal activity %
head lice eggs = test: Head lice egg hatching with formulated compound; format: in vivo; details: 20 mM formulation, 10 minutes exposure, n=10 eggs
Experimental: Gravid female lice were permitted to lay eggs. The eggs were counted, inspected under a light microscope and all eggs that appeared undamaged were allocated to one of two treatment groups. One group was exposed to 5′-dimethyl-2,2′-dipyridyl in a formulation, while the second group was exposed to the formulation only. The protocol was as follows:
Treatments: 5'-dimethyl-2,2'dipyridyl (20mM) n=10
Vehicle control only n=10
Exposure time: 10 minutes
Wash time: 1 minute @˜37° C.
Incubation: All eggs were placed at 31° C. in a humid incubator and monitored for signs of development specifically of the eye and subsequent hatching, see Table 21.

[2] = Plutella (P), 10 mM, read-out: Ovicidal activity %
[3] = Table 14, 10 mM, dipped approximately 2 seconds, eggs on fine cloth

## O=C(CC(=O)c1cc(Cl)ccc1O)c1ccccc1 [1-(5-Chloro-2-hydroxy-phenyl)-3-phenyl-propane-1,3-dione]
[1]
  inhibition at 10000 µM: 0%

## CC(=O)NO [Acetohydroxamic acid]
Plutella xylostella eggs; [2]
  inhibition at 10000 µM: 0%
Plutella xylostella eggs; in vivo
  Logit calc pLD50: 0.7
  Pref pLD50: <2

## c1cnc2ccc3ncccc3c2c1 [4,7-phenanthroline]
[1]
  inhibition at 10000 µM: 0%

## CC(C)(C)c1ccc(C(=O)CC(=O)c2ccc(C(C)(C)C)cc2)cc1 [1,3-Bis-(4-tert-butyl-phenyl)-propane-1,3-dione]
Plutella xylostella eggs; [2]
  inhibition at 10000 µM: 0%
Plutella xylostella eggs; in vivo
  Logit calc pLD50: 0.7
  Pref pLD50: <2

## Cc1cc(C)cc(C(=O)CC(=O)c2cc(C)cc(C)c2)c1 [1,3-Bis-(3,5-dimethyl-phenyl)-propane-1,3-dione]
Plutella xylostella eggs; [2]
  inhibition at 10000 µM: 0%
Plutella xylostella eggs; in vivo
  Logit calc pLD50: 0.7
  Pref pLD50: <2

## c1ccc(CNCc2ccccn2)nc1 [Di(2-picolyl) amine]
Lice eggs; Lice (L)
  Activity class 0 = inactive 1 = low 2 = med 3 = high: 0 (A pLD50 value less than 2 is considered inactive (Class 0))
Lice eggs
  inhibition at 10000 µM: 0%

## Cc1ccccn1 [2-Picoline]
Lice eggs; Lice (L)
  Activity class 0 = inactive 1 = low 2 = med 3 = high: 0 (A pLD50 value less than 2 is considered inactive (Class 0))
Lice eggs; Lice (L), 10 mM
  inhibition at 10000 µM: 0%

## CCCC(N)CO [D-L-2-Amino-1-pentanol]
Plutella xylostella eggs; Plutella (P), 10 mM
  Ovicidal activity %: 0.00%
Plutella xylostella eggs; Plutella (P)
  Activity class 0 = inactive 1 = low 2 = med 3 = high: 0 (A pLD50 value less than 2 is considered inactive (Class 0))
Plutella xylostella eggs; in vivo
  Logit calc pLD50: 0.7
  Pref pLD50: <2

## O=C(CC(=O)C(F)(F)F)c1ccccc1 [4,4,4-Trifluoro-1-phenyl-butane-1,3-dione]
[1]
  inhibition at 10000 µM: 0%

## CC(=O)C1CCCCC1=O (stereo not shown) [2-Acetylcyclohexanone]
Plutella xylostella eggs; [2]
  inhibition at 10000 µM: 0%
Plutella xylostella eggs; in vivo
  Logit calc pLD50: 0.7
  Pref pLD50: <2

## Cc1ccc(-c2ccc(C)cn2)nc1 [Ha44]
Head lice eggs; Day 1
  Stage of development: number of eggs with eye development: 1 eye development
  Stage of development: number of eggs with no eye dev.: 9 no eye dev.
Head lice eggs; Day 4
  Stage of development: number of eggs hatched: 1 hatched
  Stage of development: number of eggs with eye development: 1 eye development
  Stage of development: number of eggs with no eye dev.: 8 no eye dev.
Head lice eggs; Day 5
  Stage of development: number of eggs with eye development: 1 eye development
  Stage of development: number of eggs with no eye dev.: 8 no eye dev.
Head lice eggs; Day 6
  Stage of development: number of eggs with eye development: 1 eye development
  Stage of development: number of eggs with no eye dev.: 8 no eye dev.
Head lice eggs; Day 7
  Stage of development: number of eggs with eye development: 1 eye development
  Stage of development: number of eggs with no eye dev.: 8 no eye dev.
Head lice eggs; Day 12
  Stage of development: number of eggs with eye development: 1 eye development
  Stage of development: number of eggs with no eye dev.: 8 no eye dev.

## CCOC(=O)CNC(C)=O [Ethyl-acetaimidoacetate]
Plutella xylostella eggs; Plutella (P), 10 mM
  Ovicidal activity %: 0.00%
Plutella xylostella eggs; Plutella (P)
  Activity class 0 = inactive 1 = low 2 = med 3 = high: 0 (A pLD50 value less than 2 is considered inactive (Class 0))

## c1ccc(-c2ccc3ccccc3n2)nc1 [2-(2-pyridinyl)quinoline]
Plutella xylostella eggs; 10 mM
  effect on egg hatching of Plutella xylostella (words): able to inhibit egg hatching
Plutella xylostella eggs; [2]
  inhibition at 10000 µM: 100%
Plutella xylostella eggs; Table 14, 10 mM, relative to control (100% ETOH), read-out: % Inhibition
  inhibition at 10000 µM: 96%
Plutella xylostella eggs; [3]
  Number hatched: 2
  Number unhatched: 56
Plutella xylostella eggs; in vivo
  Logit calc pLD50: 3.3
  Pref pLD50: >2

## NCC(O)c1ccccc1 (stereo not shown) [2-Amino-1-phenyl ethanol]
Plutella xylostella eggs; in vivo
  Ovicidal activity %: 0.00%

## COC(=O)CN [Glycine methyl ester]
Plutella xylostella eggs; [2]
  inhibition at 10000 µM: 0%
Plutella xylostella eggs; in vivo
  Logit calc pLD50: 0.7
  Pref pLD50: <2
